Test results taken from PMC4595045 (Journal of medicinal chemistry, 2013).

Columns and labels:
CaV1.3 LTCCs [1] = biological target: T1, CaV1.3 LTCCs (Rattus norvegicus, UniProt P27732); settings: more potent than 6; ref previous study; cited from earlier work
CaV1.3 LTCCs [2] = biological target: T1, CaV1.3 LTCCs; test: FLIPR Fluo-8 calcium influx assay, HEK293 cells stably expressing CaV1.3; type: cell-based; settings: for Selectivity, ratio of the IC50 values (CaV1.2/CaV1.3): CaV1.3 over CaV1.2; for binding to CaV1.3 LTCCs (in words): bulky bicyclic ring analogues; for binding affinity for CaV1.3 LTCCs (in words): even at 100 µM
CaV1.2 LTCCs = CaV1.2 LTCCs (Oryctolagus cuniculus, UniProt P15381); test: FLIPR Fluo-8 calcium influx assay, HEK293 cells stably expressing CaV1.2; type: cell-based, rabbit; settings: for binding to CaV1.2 LTCCs (in words): bulky bicyclic ring analogues; for binding affinity for CaV1.2 LTCCs (in words): even at 100 µM
Sequence of CaV1.2 LTCCs (P15381 whole entry): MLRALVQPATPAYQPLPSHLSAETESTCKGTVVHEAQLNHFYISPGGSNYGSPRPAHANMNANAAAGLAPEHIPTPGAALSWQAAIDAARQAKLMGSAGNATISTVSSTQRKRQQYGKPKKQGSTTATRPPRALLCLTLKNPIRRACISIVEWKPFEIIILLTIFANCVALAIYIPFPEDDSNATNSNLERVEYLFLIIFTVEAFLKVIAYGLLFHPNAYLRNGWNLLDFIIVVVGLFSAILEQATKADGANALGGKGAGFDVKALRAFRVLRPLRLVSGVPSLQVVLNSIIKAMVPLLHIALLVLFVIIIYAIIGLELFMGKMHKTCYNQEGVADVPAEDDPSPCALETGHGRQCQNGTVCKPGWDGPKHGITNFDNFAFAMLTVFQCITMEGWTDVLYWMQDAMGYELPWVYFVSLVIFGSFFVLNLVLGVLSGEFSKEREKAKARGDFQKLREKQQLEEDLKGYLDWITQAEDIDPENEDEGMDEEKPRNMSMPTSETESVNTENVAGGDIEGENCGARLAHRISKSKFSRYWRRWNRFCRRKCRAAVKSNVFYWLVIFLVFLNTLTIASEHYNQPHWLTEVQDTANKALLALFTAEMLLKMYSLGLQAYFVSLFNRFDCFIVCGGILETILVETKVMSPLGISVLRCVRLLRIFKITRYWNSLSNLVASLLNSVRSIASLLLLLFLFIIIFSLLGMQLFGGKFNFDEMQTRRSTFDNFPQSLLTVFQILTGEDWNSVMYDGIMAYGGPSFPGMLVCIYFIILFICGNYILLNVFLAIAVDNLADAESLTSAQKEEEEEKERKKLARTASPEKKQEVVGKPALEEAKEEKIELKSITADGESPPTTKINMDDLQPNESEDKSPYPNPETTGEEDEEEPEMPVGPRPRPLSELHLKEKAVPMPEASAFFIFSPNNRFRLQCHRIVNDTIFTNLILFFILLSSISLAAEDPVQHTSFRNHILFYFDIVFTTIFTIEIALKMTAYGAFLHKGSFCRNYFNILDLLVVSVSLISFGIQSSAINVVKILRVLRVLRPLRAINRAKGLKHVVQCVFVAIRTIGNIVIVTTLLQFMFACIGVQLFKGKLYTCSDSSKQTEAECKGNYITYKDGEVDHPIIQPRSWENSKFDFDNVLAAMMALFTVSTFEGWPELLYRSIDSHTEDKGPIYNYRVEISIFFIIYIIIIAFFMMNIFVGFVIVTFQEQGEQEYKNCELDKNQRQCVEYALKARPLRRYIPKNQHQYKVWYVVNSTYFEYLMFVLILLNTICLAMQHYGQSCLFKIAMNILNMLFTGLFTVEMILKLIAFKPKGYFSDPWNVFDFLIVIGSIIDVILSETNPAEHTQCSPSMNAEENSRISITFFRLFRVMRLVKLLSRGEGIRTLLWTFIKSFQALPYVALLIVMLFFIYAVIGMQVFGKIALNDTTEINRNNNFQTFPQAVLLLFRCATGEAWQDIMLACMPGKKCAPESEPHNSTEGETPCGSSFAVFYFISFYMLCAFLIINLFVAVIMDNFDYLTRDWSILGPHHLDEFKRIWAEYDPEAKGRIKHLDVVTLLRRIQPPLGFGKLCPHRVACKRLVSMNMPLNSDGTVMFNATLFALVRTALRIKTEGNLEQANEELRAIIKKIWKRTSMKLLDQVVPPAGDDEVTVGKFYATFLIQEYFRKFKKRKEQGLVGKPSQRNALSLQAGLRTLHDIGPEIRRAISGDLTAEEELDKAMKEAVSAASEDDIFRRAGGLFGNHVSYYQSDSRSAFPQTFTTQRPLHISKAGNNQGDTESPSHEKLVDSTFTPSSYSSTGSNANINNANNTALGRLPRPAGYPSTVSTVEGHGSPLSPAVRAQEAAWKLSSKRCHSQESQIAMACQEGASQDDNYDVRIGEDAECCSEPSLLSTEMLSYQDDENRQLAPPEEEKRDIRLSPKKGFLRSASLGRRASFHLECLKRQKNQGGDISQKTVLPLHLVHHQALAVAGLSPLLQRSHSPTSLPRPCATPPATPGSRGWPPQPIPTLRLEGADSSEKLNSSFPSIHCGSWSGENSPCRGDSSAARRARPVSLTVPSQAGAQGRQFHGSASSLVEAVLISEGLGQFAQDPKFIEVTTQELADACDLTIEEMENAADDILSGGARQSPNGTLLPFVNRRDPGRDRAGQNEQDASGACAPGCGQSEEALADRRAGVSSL
Sequence of CaV1.2 LTCCs (P54287 whole entry partner): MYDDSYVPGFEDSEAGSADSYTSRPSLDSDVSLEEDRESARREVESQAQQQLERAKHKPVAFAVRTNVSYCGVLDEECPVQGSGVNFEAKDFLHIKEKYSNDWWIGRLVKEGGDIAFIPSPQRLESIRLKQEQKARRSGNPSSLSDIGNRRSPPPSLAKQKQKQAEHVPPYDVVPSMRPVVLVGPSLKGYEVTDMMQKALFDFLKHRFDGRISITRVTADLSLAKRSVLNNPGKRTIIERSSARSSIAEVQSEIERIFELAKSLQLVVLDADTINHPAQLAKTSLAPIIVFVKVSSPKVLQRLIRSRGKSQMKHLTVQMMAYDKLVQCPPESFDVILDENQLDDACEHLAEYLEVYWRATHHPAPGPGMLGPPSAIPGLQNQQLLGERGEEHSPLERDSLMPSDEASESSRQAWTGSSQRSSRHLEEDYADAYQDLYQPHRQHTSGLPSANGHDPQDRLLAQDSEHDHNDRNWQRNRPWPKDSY
Sequence of CaV1.2 LTCCs (P54290 25-944 partner): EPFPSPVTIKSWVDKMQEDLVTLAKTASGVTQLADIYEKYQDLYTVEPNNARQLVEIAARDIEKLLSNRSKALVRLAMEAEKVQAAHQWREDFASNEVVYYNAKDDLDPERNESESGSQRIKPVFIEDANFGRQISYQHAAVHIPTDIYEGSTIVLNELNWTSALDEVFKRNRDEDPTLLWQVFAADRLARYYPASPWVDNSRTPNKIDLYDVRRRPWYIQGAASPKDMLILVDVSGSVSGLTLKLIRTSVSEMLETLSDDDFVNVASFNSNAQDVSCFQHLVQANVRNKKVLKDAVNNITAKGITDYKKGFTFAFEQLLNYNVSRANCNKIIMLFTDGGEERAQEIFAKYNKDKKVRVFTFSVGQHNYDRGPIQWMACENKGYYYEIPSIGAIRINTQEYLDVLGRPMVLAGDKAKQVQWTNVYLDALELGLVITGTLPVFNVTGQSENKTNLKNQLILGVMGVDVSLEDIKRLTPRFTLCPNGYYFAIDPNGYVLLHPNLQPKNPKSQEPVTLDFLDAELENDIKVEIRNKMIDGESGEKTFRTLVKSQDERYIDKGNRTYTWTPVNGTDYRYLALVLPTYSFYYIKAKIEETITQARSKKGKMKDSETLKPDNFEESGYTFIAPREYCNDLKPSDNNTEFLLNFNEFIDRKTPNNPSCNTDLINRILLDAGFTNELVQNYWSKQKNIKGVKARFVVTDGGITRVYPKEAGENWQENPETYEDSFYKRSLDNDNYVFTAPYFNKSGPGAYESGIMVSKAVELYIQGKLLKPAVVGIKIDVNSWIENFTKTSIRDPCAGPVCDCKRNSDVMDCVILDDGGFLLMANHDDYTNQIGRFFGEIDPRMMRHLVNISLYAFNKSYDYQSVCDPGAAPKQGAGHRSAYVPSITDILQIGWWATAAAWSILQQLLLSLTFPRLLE
Sequence of CaV1.2 LTCCs (P54290 945-1091 partner): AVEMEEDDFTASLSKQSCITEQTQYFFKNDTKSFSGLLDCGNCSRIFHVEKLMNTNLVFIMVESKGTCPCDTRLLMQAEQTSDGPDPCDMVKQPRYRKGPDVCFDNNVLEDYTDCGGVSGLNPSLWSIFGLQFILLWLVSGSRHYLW

SMILES: O=C1CC(=O)N(C2CC3CCC2C3)C(=O)N1CCc1ccc(Cl)cc1 (mixture of isomers) [Compound 7, N-(4-chlorophenethyl)-N′-(±)-endo-norbornylpyrimidine-2,4,6-(1H,3H,5H)-trione]
- potency toward CaV1.3 LTCC relative to 6 (CaV1.3 LTCCs [1]): 3 fold

SMILES: C[C@@H](C1CCCCC1)N1C(=O)CC(=O)N(CCc2ccc(Cl)cc2)C1=O [Compound 44, (S)-1-(4-Chlorophenethyl)-3-(1-cyclohexylethyl)pyrimidine-2,4,6(1H,3H,5H)-trione]
- Selectivity, ratio of the IC50 values (CaV1.2/CaV1.3) (CaV1.3 LTCCs [2]): >12

SMILES: C[C@H](C1CCCCC1)N1C(=O)CC(=O)N(CCc2ccc(Cl)cc2)C1=O [Compound 46, (R)-1-(4-Chlorophenethyl)-3-(1-cyclohexylethyl)pyrimidine-2,4,6(1H,3H,5H)-trione]
- Selectivity, ratio of the IC50 values (CaV1.2/CaV1.3) (CaV1.3 LTCCs [2]): >12

SMILES: O=C1CC(=O)N([C@H]2C[C@H]3CC[C@@H]2C3)C(=O)N1CCc1cccc(Cl)c1 [Compound 49, 1-((1R,2S,4S)-Bicyclo[2.2.1]heptan-2-yl)-3-(3-chlorophenethyl)pyrimidine-2,4,6(1H,3H,5H)-trione]
- Selectivity, ratio of the IC50 values (CaV1.2/CaV1.3) (CaV1.3 LTCCs [2]): >29

SMILES: CC1(C)[C@@H]2CC[C@@]1(C)[C@@H](N1C(=O)CC(=O)N(CCc3cccc(Cl)c3)C1=O)C2 [Compound 53]
- binding to CaV1.3 LTCCs (in words) (CaV1.3 LTCCs [2]): almost no binding
- binding to CaV1.2 LTCCs (in words) (CaV1.2 LTCCs): almost no binding

SMILES: CC1(C)[C@@H]2CC[C@@]1(C)[C@@H](N1C(=O)CC(=O)N(CCc3ccc(Cl)cc3)C1=O)C2 [Compound 54]
- binding to CaV1.3 LTCCs (in words) (CaV1.3 LTCCs [2]): almost no binding
- binding to CaV1.2 LTCCs (in words) (CaV1.2 LTCCs): almost no binding

SMILES: CC1(C)[C@@H]2CC[C@H](CN3C(=O)CC(=O)N(CCc4cccc(Cl)c4)C3=O)[C@H]1C2 [Compound 55]
- binding to CaV1.3 LTCCs (in words) (CaV1.3 LTCCs [2]): almost no binding
- binding to CaV1.2 LTCCs (in words) (CaV1.2 LTCCs): almost no binding

SMILES: CC1(C)[C@@H]2CC[C@H](CN3C(=O)CC(=O)N(CCc4ccc(Cl)cc4)C3=O)[C@H]1C2 [Compound 56]
- binding to CaV1.3 LTCCs (in words) (CaV1.3 LTCCs [2]): almost no binding
- binding to CaV1.2 LTCCs (in words) (CaV1.2 LTCCs): almost no binding

SMILES: O=C1CC(=O)N([C@H]2CCNC2)C(=O)N1CCc1cccc(Cl)c1 [Compound 65]
- binding affinity for CaV1.3 LTCCs (in words) (CaV1.3 LTCCs [2]): no binding affinity
- binding affinity for CaV1.2 LTCCs (in words) (CaV1.2 LTCCs): no binding affinity

SMILES: O=C(O)[C@H]1CC[C@@H](N2C(=O)CC(=O)N(CCc3cccc(Cl)c3)C2=O)C1 [Compound 67]
- binding affinity for CaV1.3 LTCCs (in words) (CaV1.3 LTCCs [2]): no binding affinity
- binding affinity for CaV1.2 LTCCs (in words) (CaV1.2 LTCCs): no binding affinity

SMILES: O=C1CC(=O)N([C@H]2CCC[C@@H]2O)C(=O)N1CCc1cccc(Cl)c1 [Compound 69]
- binding affinity for CaV1.3 LTCCs (in words) (CaV1.3 LTCCs [2]): no binding affinity
- binding affinity for CaV1.2 LTCCs (in words) (CaV1.2 LTCCs): no binding affinity
